Article PMC5773651, “Customised in vitro model to detect human metabolism-dependent idiosyncratic drug-induced liver injury” (Archives of Toxicology, 2017)
Like-named read-outs stand apart in the source and are kept apart here. Marks after values point to notes of the source that are not given here.

What was measured:
HepG2 cells [1] = assay: Cell viability (PI), IC50, control HepG2 cells; assay type: cell-based; settings: Homo sapiens; control non-transduced HepG2; 24 h; unit inferred, tested range in µM; read-out: IC50 (cell viability), C
[2] = tested on: HepG2 cells transduced with AdCYP2C9; assay: Cell viability (PI), IC50, AdCYP2C9-HepG2; assay type: cell-based; settings: Homo sapiens, unit inferred, tested range in µM
[3] = tested on: HepG2 cells transduced with AdCYP2B6; assay: Cell viability (PI), IC50, AdCYP2B6-HepG2; assay type: cell-based; settings: Homo sapiens, unit inferred, tested range in µM
Experimental: (§1) For subculturing purposes, cells were detached by treatment with 0.25% trypsin/0.02% EDTA at 37 °C. For the adenovirus infection studies, cells were seeded in 96-well plates (5000 cells/well) and adenovirus-containing medium was added 48 h later. After 24 h, cells were transferred to the adenovirus-free medium and cultured for an additional 24-h period prior to the incubations performed with the test chemicals. To optimise the expression of the functional enzymes in the adenovirus-transduced HepG2 (Ad-HepG2) cells, different doses (MOI, multiplicity of infection, defined as plaque formation units per cell) of each adenovirus were tested.
(§2) The drugs included in the study were chosen based on previous information about their hepatotoxicity. Information on the potential mechanisms implicated in the toxicity of each compound and the major enzymes involved in their metabolism is summarised in Table 1. HepG2 or Ad-HepG2 (48 h post-infection) cells were exposed for 24 h to eight concentrations of the tested compounds. Each experimental condition was repeated independently three times (with three wells measured each time). The stock solutions of compounds were prepared in DMSO and were conveniently diluted in the culture medium to obtain the desired final concentrations. The final DMSO concentration in the culture medium was 0.5% (v/v), and the control cultures were treated with the same amount of solvent.
(§3) Following treatments, cells were simultaneously loaded with several fluorescent dyes to measure multiple biomarkers of cell toxicity. […] Information about the probes is summarised in Supplementary Table S2.
(§4) After incubating with dyes, cells were imaged by the Scan^R system (Olympus, Germany). Dyes were excited, and their fluorescence was monitored at the excitation and emission wavelengths at appropriate filter settings. The collected images were analysed using the Scan^R analysis module, which allows the simultaneous quantification of subcellular structures that are stained by different fluorescent probes.

HepG2 cells [4] = settings: human, 24 h
Experimental: as §1, §2, §3, §4

[5] = tested on: HepG2 cells transduced with AdCYP2B6; assay: HCS hepatotoxicity assay (MEC, TR), AdCYP2B6-HepG2; assay type: cell-based, human; settings: 24 h, unit inferred, tested range in mM
Experimental: as §1
The drugs included in the study were chosen based on previous information about their hepatotoxicity. […] Each experimental condition was repeated independently three times (with three wells measured each time). […]
as §4

[6] = ref Atienzar et al. ([2014]), Garside et al. ([2014]), Tolosa et al. ([2012b]); cited from earlier work
[7] = cited from earlier work; for Bioactivation / Enzyme: major enzyme(s) involved in the bioactivation (denoted as *) or detoxification of the drug: previous information; for Toxicity (mechanisms of toxicity): ref Ashrafian et al. [2007], Donato et al. [2009], Fromenty and Pessayre [1997], Rolo et al. [2000], Tolosa et al. [2012b]; for DILI category: ref Gustafsson et al. ([2014])
Ad-HepG2 and HepG2 cells = assay type: cell-based, human
Source text: Finally, we explored the toxicity of the amoxycillin/clavulanate combination, one of the most commonly implicated agents in severe idiosyncratic liver injury. Unlike other studied drugs, the hepatotoxicity of amoxycillin/clavulanate has not been related to CYP metabolism.

[8] = tested on: HepG2 cells transduced with AdCYP2E1; assay: Cell viability (PI), IC50, AdCYP2E1-HepG2; assay type: cell-based; settings: Homo sapiens, unit inferred, tested range in µM
Experimental: as §1, §2, §3, §4

[9] = tested on: HepG2 cells transduced with AdCYP2E1; settings: human, 24 h
Experimental: as §1, §2, §3, §4

[10] = tested on: HepG2 cells transduced with AdGSTM1; settings: human, 24 h
Experimental: as §1, §2, §3, §4

[11] = tested on: HepG2 cells co-transduced with AdCYP2E1 and AdCYP1A2; assay: HCS hepatotoxicity assay (MEC, TR), AdCYP2E1 + AdCYP1A2 HepG2; assay type: cell-based, human; settings: 24 h; for MEC Apoptosis / MEC Calcium / MEC MMP / MEC Mitochondrial superoxide / MEC ROS: unit inferred, tested range in mM
Experimental: as §1, §2, §3, §4

[12] = tested on: HepG2 cells co-transduced with AdCYP2E1, CYP1A2 and AdGSTM1; assay: HCS hepatotoxicity assay (MEC, TR), AdCYP2E1 + AdCYP1A2 + AdGSTM1 HepG2; assay type: cell-based, human; settings: 24 h; for MEC Apoptosis / MEC Calcium / MEC MMP / MEC Mitochondrial superoxide / MEC ROS: unit inferred, tested range in mM
Experimental: as §1, §2, §3, §4

[13] = tested on: HepG2 cells co-transduced with AdCYP2E1 and AdGSTM1; assay: HCS hepatotoxicity assay (MEC, TR), AdCYP2E1 + AdGSTM1 HepG2; assay type: cell-based, human; settings: CYP2E1-10X + GSTM1, 24 h
Experimental: as §1, §2, §3, §4

[14] = ADV CYP2E1 x1, 24 h, read-out: IC50 (cell viability), ADV dose x1
[15] = ADV CYP2E1 x4, 24 h, read-out: IC50 (cell viability), ADV dose x4
[16] = ADV CYP2E1 x10, 24 h, read-out: IC50 (cell viability), ADV dose x10
[17] = unit inferred, tested range in mM
[18] = unit not given, tested range in mM

CCCC(CCC)C(=O)O [Valproic acid]
IC50 (HepG2 cells [1]): 14800 µM
IC50 ([2]; ADV CYP2C99 x1, 24 h, read-out: IC50 (cell viability), ADV dose x1): 14400 µM
IC50 ([2]; ADV CYP2C99 x4, 24 h, read-out: IC50 (cell viability), ADV dose x4): 16000 µM
IC50 ([2]; ADV CYP2C99 x10, 24 h, read-out: IC50 (cell viability), ADV dose x10): 10100 µM
IC50 ([3]; ADV CYP2B6 x1, 24 h, read-out: IC50 (cell viability), ADV dose x1): 13300 µM
IC50 ([3]; ADV CYP2B6 x4, 24 h, read-out: IC50 (cell viability), ADV dose x4): 8600 µM
IC50 ([3]; ADV CYP2B6 x10, 24 h, read-out: IC50 (cell viability), ADV dose x10): 8700 µM
MEC Lipids (HepG2 cells [4]): 6
MEC ROS ([5]; CYP2B6-4X): 10 mM
MEC ROS ([5]; CYP2B6-10X): 8 mM
Cmax [6]: 166 µM
Bioactivation [7]: Yes
Enzyme: major enzyme(s) involved in the bioactivation (denoted as *) or detoxification of the drug [7]: CYP2B6*, CYP2C9* (CYP2E1*, CYP2A6*)
Toxicity (mechanisms of toxicity) [7]: MI, OS, ST

Amoxicillin/clavulanate
ROS production (Ad-HepG2 and HepG2 cells): significant increase

CC(=O)Nc1ccc(O)cc1 [Acetaminophen]
IC50 (HepG2 cells [1]): > 15000 µM
IC50 [8, 14]: > 15000 µM
IC50 [8, 15]: > 15000 µM
IC50 [8, 16]: 10600 µM
concentrations needed to significantly alter ROS generation and calcium levels [9]: 4000 to 6000 µM
MEC Apoptosis [10]: 4 µM
MEC Calcium [10]: 10
MEC MMP [10]: 15
MEC Mitochondrial superoxide [10]: 6
MEC ROS [10]: 15
TR [10]: 3.5
MEC Apoptosis (HepG2 cells [4]): 4 µM
MEC Calcium (HepG2 cells [4]): 6
MEC MMP (HepG2 cells [4]): 15
MEC Mitochondrial superoxide (HepG2 cells [4]): 4
MEC ROS (HepG2 cells [4]): 10
TR (HepG2 cells [4]): 3.5
MEC Apoptosis ([11]; CYP2E1-1X + CYP1A2-1X): 1 mM
MEC Calcium ([11]; CYP2E1-1X + CYP1A2-1X): 6 mM
MEC MMP ([11]; CYP2E1-1X + CYP1A2-1X): 10 mM
MEC Mitochondrial superoxide ([11]; CYP2E1-1X + CYP1A2-1X): 1 mM
MEC ROS ([11]; CYP2E1-1X + CYP1A2-1X): 6 mM
TR ([11]; CYP2E1-4X + CYP1A2-4X, TR = 100 x Cmax/lowest MEC): 27.8
MEC Apoptosis ([11]; CYP2E1-4X + CYP1A2-4X): 0.5 mM
MEC Calcium ([11]; CYP2E1-4X + CYP1A2-4X): 0.5 mM
MEC MMP ([11]; CYP2E1-4X + CYP1A2-4X): 6 mM
MEC Mitochondrial superoxide ([11]; CYP2E1-4X + CYP1A2-4X): 0.5 mM
MEC ROS ([11]; CYP2E1-4X + CYP1A2-4X): 0.5 mM
concentration that induced significant changes in the ROS generation and calcium levels ([11]; cells co-transduced with AdCYP2E1 and AdCYP1A2, intermediate doses of adenoviruses): 500 µM
TR ([12]; CYP2E1-1X + CYP1A2-1X + GSTM1, TR = 100 x Cmax/lowest MEC): 3.5
MEC Apoptosis ([12]; CYP2E1-1X + CYP1A2-1X + GSTM1): 4 mM
MEC Calcium ([12]; CYP2E1-1X + CYP1A2-1X + GSTM1): 15 mM
MEC MMP ([12]; CYP2E1-1X + CYP1A2-1X + GSTM1): 15 mM
MEC Mitochondrial superoxide ([12]; CYP2E1-1X + CYP1A2-1X + GSTM1): 6 mM
MEC ROS ([12]; CYP2E1-1X + CYP1A2-1X + GSTM1): 15 mM
MEC Apoptosis ([12]; CYP2E1-4X + CYP1A2-4X + GSTM1): 1 mM
MEC Calcium ([12]; CYP2E1-4X + CYP1A2-4X + GSTM1): 6 mM
MEC MMP ([12]; CYP2E1-4X + CYP1A2-4X + GSTM1): 10 mM
MEC Mitochondrial superoxide ([12]; CYP2E1-4X + CYP1A2-4X + GSTM1): 4 mM
MEC ROS ([12]; CYP2E1-4X + CYP1A2-4X + GSTM1): 6 mM
Bioactivation [7]: Yes
Enzyme: major enzyme(s) involved in the bioactivation (denoted as *) or detoxification of the drug [7]: CYP2E1* (CYP1A2*, CYP3A4*) GST
Toxicity (mechanisms of toxicity) [7]: OS, AP
DILI category [7]: DILI reports

NNC(=O)c1ccncc1 [Isoniazid]
IC50 (HepG2 cells [1]): 61500 µM
IC50 [8, 14]: 52900 µM
IC50 [8, 15]: 44500 µM
IC50 [8, 16]: 46600 µM
MEC MMP [9]: >50
MEC Apoptosis [10]: 30 µM
MEC Calcium [10]: >50
MEC MMP [10]: >50
MEC Mitochondrial superoxide [10]: >50
MEC ROS [10]: >50
TR [10]: 0.25
MEC Apoptosis (HepG2 cells [4]): 30 µM
MEC Calcium (HepG2 cells [4]): 30
MEC MMP (HepG2 cells [4]): >50
MEC Mitochondrial superoxide (HepG2 cells [4]): 30
MEC ROS (HepG2 cells [4]): >50
TR (HepG2 cells [4]): 0.25
TR ([13]; TR = 100 x Cmax/lowest MEC): 0.38
MEC Calcium [13, 17]: 20 mM
MEC Mitochondrial superoxide [13, 17]: 30 mM
MEC ROS [13, 17]: > 50 mM
MEC Apoptosis [13, 18]: 30
MEC MMP [13, 18]: >50
Bioactivation [7]: Yes
Enzyme: major enzyme(s) involved in the bioactivation (denoted as *) or detoxification of the drug [7]: CYP2E1*, GSTM1, NAT2
Toxicity (mechanisms of toxicity) [7]: MI, OS, AP
DILI category [7]: Severe
